Entries after “also recorded” stand apart in the source; their conditions may differ.
Key:
ErbB-2 [1] = test: ErbB-2 cellular localization (subcellular fractionation/immunoblot, confocal microscopy) in T47D cells; format: cell-based, human; settings: MPA treatment of T47D cells, 15 to 60 min
Method: (§1) Lysates were prepared from cells subjected to the different treatments and proteins were subjected to SDS-PAGE as previously described (21). Membranes were immunoblotted with the antibodies detailed in each experiment. When phospho(p)-protein antibodies were used, filters were reprobed with total protein antibodies. Signal intensities of pErbB-2, pStat3, pSrc, pPR, pJak1, and pJak2 bands were analyzed by densitometry and normalized to total protein bands. Similarly, signal intensities of PR, cyclin D1, Stat3, and ErbB-2 bands were normalized to actin or β tubulin bands. […]
(§2) Cells grown on glass coverslips were fixed and permeabilized in ice-cold methanol and were then blocked with PBS 1% BSA. ErbB-2 was localized using either a rabbit polyclonal (C-18) or a mouse monoclonal (F-11) ErbB-2 antibody (Santa Cruz Biotechnology) and Stat3 was detected using a mouse monoclonal antibody (124H6, Cell Signaling), followed by incubation with a goat anti-rabbit IgG-Alexa 488 (Molecular Probes, Eugene, Oreg.) secondary antibody for ErbB-2 (C-18) and with a rhodamine conjugated goat anti-mouse secondary antibody (Jackson ImmunoResearch Laboratories, West Grove, Pa.) for both ErbB2 (F-11) and Stat3. […] When cells were transfected with hErbB-2ΔNLS, green fluorescent protein from this expression vector was visualized by direct fluorescence imaging. […]

Stat3 [2] = test: Stat3 phosphorylation and nuclear translocation in C4HD cells; format: cell-based, mouse
Method: (§3) Lysates were prepared from cells subjected to the different treatments and proteins were subjected to SDS-PAGE as previously described (21). Membranes were immunoblotted with the antibodies detailed in each experiment. When phospho(p)-protein antibodies were used, filters were reprobed with total protein antibodies. Signal intensities of pErbB-2, pStat3, pSrc, pPR, pJak1, and pJak2 bands were analyzed by densitometry and normalized to total protein bands. Similarly, signal intensities of PR, cyclin D1, Stat3, and ErbB-2 bands were normalized to actin or β tubulin bands. […] The NEPER Nuclear and Cytoplasmic Extraction Reagents technique (Pierce Biotechnology) was performed as per manufacturer's instructions. Nuclear association between ErbB-2 and Stat3 was studied by performing coimmunoprecipitation experiments using 200 μg of nuclear protein lysates as described (22).
siRNAs targeting ErbB-2, Stat3, and Pr were synthesized by Dharmacon, Inc (Lafayatte, Colo.) (ErbB-2siRNA: 5′GAUGGUGCUUACUCAUUGA3′ (SEQ ID NO:8), designed to specifically knockdown mouse ErbB2 but not human ErbB-2; Stat3siRNA: 5′[…]3′ (SEQ ID NO:9) targets mouse Stat3; and 5′[…]3′ (SEQ ID NO:10) targets human Stat3; PRsiRNA: 5′[…]3′(SEQ ID NO:11)). […] Transfection of siRNAs duplexes was performed by using the DharmaFECT transfection reagent following the manufacturer's direction for 3 days. For reconstitution experiments cotransfection of 25 nM ErbB-2 siRNA with 2 μg expression vectors was performed using DharmaFECT Duo transfection reagent (Dharmacon).
(§4) Cells grown on glass coverslips were fixed and permeabilized in ice-cold methanol and were then blocked with PBS 1% BSA. ErbB-2 was localized using either a rabbit polyclonal (C-18) or a mouse monoclonal (F-11) ErbB-2 antibody (Santa Cruz Biotechnology) and Stat3 was detected using a mouse monoclonal antibody (124H6, Cell Signaling), followed by incubation with a goat anti-rabbit IgG-Alexa 488 (Molecular Probes, Eugene, Oreg.) secondary antibody for ErbB-2 (C-18) and with a rhodamine conjugated goat anti-mouse secondary antibody (Jackson ImmunoResearch Laboratories, West Grove, Pa.) for both ErbB2 (F-11) and Stat3. Negative controls were carried out using PBS instead of primary antibodies, or 5× competitive peptide (Santa Cruz Biotechnology) when ErbB-2 (C-18) was used. When cells were transfected with hErbB-2ΔNLS, green fluorescent protein from this expression vector was visualized by direct fluorescence imaging. […] FIGS. 2A, 3B and C, illustrate a few cells representative of the ones examined. Cells were analyzed using a Nikon Eclipse E800 confocal laser microscopy system (22).

cyclin D1 promoter [3] = test: Human cyclin D1 promoter luciferase reporter in C4HD cells; format: cell-based, mouse; settings: for MPA-induced cyclin D1 promoter activation: pretreatment or cotransfection
Description: The luciferase reporter plasmid downstream the cyclin D1 human promoter region (−1745 cyclin D1-luc), and constructs truncated at positions −963, −261, −141, were kindly provided by Dr. R. Pestell (Northwestern University Medical School, Chicago, Ill.). These constructs were generated by truncation of the 1745-bp length promoter in order to sequentially exclude 5′ regions of the promoter. The −963 cyclin D1-luc construct excludes one GAS site (−984), the −261 cyclin D1-luc excludes three GAS sites (−984, −568 and −475) and the −141 cyclin D1-luc excludes four GAS sites (−984, −568, −475 and −239). The empty vector pA3 Luc was also provided by Dr. R. Pestell. The luciferase reporter plasmid containing four copies of the m67 high-affinity binding site (p4×m67-tk-luc) and the pTATA-tk-Luc reporter lacking the m67 insertion were a gift from Dr J. Darnell (The Rockefeller University, New York, N.Y.). The Renilla luciferase expression plasmid RLCMV was obtained from Promega (Madison, Wis.). Dominant negative Stat3 expression vector, Stat3Y705-F, which carries a tyrosine to phenylalanine substitution at codon 705 that reduces phosphorylation on tyrosine of the wild-type Stat3 protein, therefore inhibiting both dimerization and DNA binding of Stat3 (6,7,16) was kindly provided by Dr J. Darnell (New York, USA). The empty pcDNA3.1 vector was also a gift of Dr J. Darnell. Human wild-type ErbB-2 expression vector (hErbB-2WT) as well as the empty pMe18SM vector were a gift from by Dr. T. Yamamoto (University of Tokyo, Japan) (1). The GFP-tagged human ErbB-2 mutant which lacks the putative nuclear localization signal sequence (aa 676-KRRQQKIRKYTMRR-689) (SEQ ID NO:3), resulting in the sequence of KLM at the deletion junction (hErbB-2ΔNLS), was generously provided by Dr. M. C. Hung (The University of Texas M.D. Anderson Cancer Center, Houston, Tex.) (Giri et al., 2005). The empty pEGFP-N1 vector was obtained from BD Biosciences Clontech (Palo Alto, Calif.). The plasmid encoding the human wild-type hPR-B was kindly provided by Dr. K. Horwitz. In experiments assessing MPA capacity to induce the transcriptional activation of Stat3, C4HD and T47D cells were transiently transfected for 48 h with 1 μg of −1745 cyclin D1-luc reporter plasmid or the truncated −963, −261 and −141 constructs, or with 1 μg p4×m67-tk-luc and 10 ng of RL-CMV used to correct variations in transfection efficiency. As control, cells were transfected with 1 μg of either the pA3 Luc or pTATA-tk-Luc reporters. Cells were cotransfected with 2 μg of Stat3Y705-F when indicated. Total amount of transfected DNA was standardized by adding the empty pcDNA3.1 vector. […] Triplicate samples were analyzed for each datum point. Differences between experimental groups were analyzed by ANOVA followed by Tukey test between groups.

cyclin D1 promoter [4] = test: Human cyclin D1 promoter luciferase reporter in T47D cells; format: cell-based; settings: MPA 24 h
Description: (§5) The luciferase reporter plasmid downstream the cyclin D1 human promoter region (−1745 cyclin D1-luc), and constructs truncated at positions −963, −261, −141, were kindly provided by Dr. R. Pestell (Northwestern University Medical School, Chicago, Ill.). These constructs were generated by truncation of the 1745-bp length promoter in order to sequentially exclude 5′ regions of the promoter. The −963 cyclin D1-luc construct excludes one GAS site (−984), the −261 cyclin D1-luc excludes three GAS sites (−984, −568 and −475) and the −141 cyclin D1-luc excludes four GAS sites (−984, −568, −475 and −239). The empty vector pA3 Luc was also provided by Dr. R. Pestell. The luciferase reporter plasmid containing four copies of the m67 high-affinity binding site (p4×m67-tk-luc) and the pTATA-tk-Luc reporter lacking the m67 insertion were a gift from Dr J. Darnell (The Rockefeller University, New York, N.Y.). The Renilla luciferase expression plasmid RLCMV was obtained from Promega (Madison, Wis.). […] Triplicate samples were analyzed for each datum point. Differences between experimental groups were analyzed by ANOVA followed by Tukey test between groups.

ErbB-2 [5] = test: ErbB-2 tyrosine phosphorylation by Western blot in T47D cells; format: cell-based, human; settings: MPA
Method: (§6) Primary cultures of epithelial cells from C4HD tumors were performed as described (2). T47D cells were obtained from American Type Culture Collection and T47D-Y cells were a generous gift from Dr. K. Horwitz (Denver, Colo.). To evaluate the effects of the pharmacological inhibitors on MPA-induced proteins phosphorylation or cyclin D1 expression, cells were preincubated for 90 min with RU486, PP2, Tyrphostin AG825 or Jak inhibitor I before addition of MPA. Cell proliferation was evaluated by [3H]-thymidine incorporation assay and cell cycle distribution was analyzed by flow cytometry, as described (22).
as §3

human cyclin D1 promoter = test: ChIP of Stat3 and ErbB-2 on the human cyclin D1 promoter in T47D cells; format: cell-based; settings: MPA 30 min, primers flanking the −984 GAS site
Method: (§7) ChIP was performed as described elsewhere (Hawthorne et al., 2005) with minor modifications. Briefly, chromatin was sonicated to an average of about 500 bp. Sonicated chromatin was then immunoprecipitated using 4 μg of either an anti-ErbB-2 or an anti-Stat3 antibody and rabbit IgG as control. The IP was collected using Protein A beads (Upstate Biotechnology, Lake Placid, N.Y.), which were washed repeatedly to remove nonspecific DNA binding. The chromatin was eluted from the beads and crosslinks were removed overnight at 65° C. DNA was then purified and quantified using real-time PCR. For sequential ChIP experiments, Stat3 immunoprecipitates were eluted with DTT and then subjected to a second round of immunoprecipitation with ErbB-2 antibody or with IgG.
(§8) ChIP DNA was amplified by real-time PCR (qPCR), performed with an ABI Prism 7500 sequence detector using SYBR green PCR master mix (Applied Biosystems, Foster City, Calif.). The primers used were as follows: 5′-TTCCGGTGGTCTGGTTCCT-3′ (SEQ ID NO:12) and 5′-[…]-3′(SEQ ID NO:13) designed to amplify a region of the mouse cyclin D1 promoter containing two GAS sites (−971 and −874), 5′-[…]-3′(SEQ ID NO:14) and 5′-[…]-3′ (SEQ ID NO:15) designed to amplify a region of the human cyclin D1 promoter containing one GAS site (−984). These primers were designed with “Primer Express” real-time PCR primer design software (Applied Biosystems). […]

mouse cyclin D1 promoter = test: ChIP of Stat3 and ErbB-2 on the mouse cyclin D1 promoter in C4HD cells; format: cell-based; settings: MPA 30 min
Method: as §7, §8

ErbB-2 [6] = test: ErbB-2 cellular localization (subcellular fractionation/immunoblot, confocal microscopy) in C4HD cells; format: cell-based, mouse; settings: MPA treatment of C4HD cells, 15 to 60 min
Method: as §1, §2

ErbB-2 [7] = test: ErbB-2 tyrosine phosphorylation by Western blot in C4HD cells; format: cell-based, mouse; settings: MPA treatment of C4HD cells
Method: as §6
as §3, with “Nuclear association between ErbB-2 and Stat3 was studied by performing coimmunoprecipitation experiments using 200 μg of nuclear protein lysates as described (22).” left out

cyclin D1 = test: Cyclin D1 protein levels by Western blot in C4HD cells; format: cell-based, mouse; settings: MPA treatment of C4HD cells
Method: as §6
as §3, with “Nuclear association between ErbB-2 and Stat3 was studied by performing coimmunoprecipitation experiments using 200 μg of nuclear protein lysates as described (22).” left out

Stat3 [8] = test: Stat3 phosphorylation and nuclear translocation in T47D cells; format: cell-based, human; settings: MPA treatment of T47D cells
Method: as §3, §4

Stat3 [9] = test: m67 Stat3 binding site luciferase reporter in T47D cells; format: cell-based, human; settings: cotransfection
Description: as §5

Stat3 [10] = test: m67 Stat3 binding site luciferase reporter in C4HD cells; format: cell-based, mouse; settings: cotransfection
Description: as §5

Compound	ErbB-2 nuclear translocation (ErbB-2 [1])	Stat3 nuclear translocation (Stat3 [2]; MPA treatment of C4HD cells, 30 and 60 min)	nuclear colocalization of ErbB-2 and Stat3 (Stat3 [2]; MPA treatment of C4HD cells, 30 min, confocal)	increase in cyclin D1 promoter activity (cyclin D1 promoter [3]; MPA 24 h, versus cells untreated with MPA) [fold]	increase in cyclin D1 promoter activity (cyclin D1 promoter [4]; versus cells untreated with MPA) [fold]	ErbB-2 phosphorylation at Tyr 1222 or Tyr 877 (ErbB-2 [5]; PR-null T47D cells (T47D-Y))	ErbB-2 phosphorylation at Tyr 1222 and Tyr 877 (ErbB-2 [5]; T47D-Y cells transfected with human PR-B (T47D-Y-PR-B))	occupancy by Stat3 and ErbB-2 of the human cyclin D1 promoter (human cyclin D1 promoter)	binding of nuclear Stat3 and ErbB-2 to the mouse cyclin D1 promoter (mouse cyclin D1 promoter)	ErbB-2 nuclear translocation (ErbB-2 [6])	ErbB-2 phosphorylation at Tyr 1272 and Tyr 927 (ErbB-2 [7])	cyclin D1 protein levels (cyclin D1)	Stat3 nuclear translocation (Stat3 [8]; 30 and 60 min)	nuclear colocalization of ErbB-2 and Stat3 (Stat3 [8]; 30 min, confocal)	MPA-induced cyclin D1 promoter activation (cyclin D1 promoter [3]; MPA 24 h)	MPA-induced cyclin D1 promoter activation (cyclin D1 promoter [4]; pretreatment or cotransfection)	Stat3 Tyr705 phosphorylation upon MPA stimulation (Stat3 [2]; Transfected C4HD cells versus wild-type C4HD cells also stimulated with MPA)	MPA-induced Stat3 transcriptional activation (m67 reporter) (Stat3 [9])	basal levels of Stat3 transcriptional activity (cyclin D1 promoter [3]; absence of MPA)	MPA-induced Stat3 transcriptional activation (m67 reporter) (Stat3 [10])
CC(=O)O[C@]1(C(C)=O)CC[C@H]2[C@@H]3C[C@H](C)C4=CC(=O)CC[C@]4(C)[C@H]3CC[C@@]21C [MPA, Medroxyprogesterone acetate]	resulted in ErbB-2 nuclear localization; also recorded: induced a strong ErbB-2 protein nuclear translocation	induced nuclear translocation of Stat3; also recorded: present at the nuclear compartment and strongly phosphorylated at Tyr 705	strong nuclear colocalization	3	3	no effect	markedly enhanced	striking increase	significant and specific	resulted in ErbB-2 nuclear localization; also recorded: induced a strong ErbB-2 protein nuclear translocation	induces a rapid phosphorylation	significant increase	induced nuclear translocation of Stat3; also recorded: present at the nuclear compartment and strongly phosphorylated at Tyr 705	strong nuclear colocalization						
Stat3Y705-F: Dominant negative Stat3 expression vector, tyrosine to phenylalanine substitution at codon 705															absolutely inhibited	absolutely inhibited				
hErbB-2WT: Human wild-type ErbB-2 expression vector															significantly enhanced		higher levels	significantly enhanced	did not modulate	significantly enhanced
